Test results: patent US20120059056A1, “CARBONATE DERIVATIVES AS SKIN CARE” (EASTMAN CHEMICAL COMPANY, priority 2010, published 2012)

Columns and labels:
[1] = Similar reaction run in the absence of enzyme (toluene / pH 7 buffer); format: physicochemical; conditions: for hydrolysis in the absence of enzyme: after 3 days; for hydrolysis in the absence of the enzyme: toluene / aqueous pH 7 buffer, time not stated
Method: Resveratrol tris(methyl carbonate) (100 mg; 0.249 mmol) was dissolved in 2 mL of toluene. […]
Hydroxytyrosol tris(methyl carbonate) (3, R=Me, 100 mg; 0.305 mmol) was dissolved in 2 mL of toluene. […]

[2] = molecular target: Novozym 435 (immobilized Candida Antarctica lipase B) (Moesziomyces antarcticus, UniProt P41365); test: Enzymatic hydrolysis with Novozym 435 in toluene / pH 7 buffer, HPLC analysis; conditions: for enzymatic hydrolysis: lipase, biphasic mixture of toluene and aqueous pH 7 buffer, time not stated
Method: Resveratrol tris(methyl carbonate) (100 mg; 0.249 mmol) was dissolved in 2 mL of toluene. 2 mL of pH 7 buffer was added followed by 100 mg of Novozym 435 (immobilized Candida Antarctica lipase B).
2 mL of pH 7 buffer was added followed by 100 mg of Novozym 435 (immobilized Candida Antarctica lipase B).
Resveratrol tripalmitate (100 mg; 0.11 mmol) was dissolved in 2 mL of toluene. 2 mL of pH 7 buffer was added followed by 100 mg of Novozym 435 (immobilized Candida Antarctica lipase B).
1 mL of pH 7 buffer was added followed by 100 mg of Novozym 435 (immobilized Candida Antarctica lipase B).
Hydroxytyrosol tris(methyl carbonate) (3, R=Me, 100 mg; 0.305 mmol) was dissolved in 2 mL of toluene. 2 mL of pH 7 buffer was added followed by 100 mg of Novozym 435 (immobilized Candida Antarctica lipase B).
Hydroxytyrosol trihexanoate containing 1.9% hydroxytyrosol by HPLC analysis (100 mg; 0.22 mmol) was dissolved in 2 mL of toluene. 2 mL of pH 7 buffer was added followed by 100 mg of Novozym 435 (immobilized Candida Antarctica lipase B).

[3] = Solubility in solvents; format: physicochemical
[4] = 24 h, ambient temperature, equal volumes of both layers
[5] = 48 h, ambient temperature (trihexanoate contained 1.9% hydroxytyrosol at start)
[6] = 22 h, ambient temperature, toluene/pH 7 buffer, equal volumes of both layers
[7] = 3 days, ambient temperature, toluene/pH 7 buffer
[8] = 1 day, ambient temperature, top layer only

Chain of Novozym 435 (immobilized Candida Antarctica lipase B) (P41365 26-342): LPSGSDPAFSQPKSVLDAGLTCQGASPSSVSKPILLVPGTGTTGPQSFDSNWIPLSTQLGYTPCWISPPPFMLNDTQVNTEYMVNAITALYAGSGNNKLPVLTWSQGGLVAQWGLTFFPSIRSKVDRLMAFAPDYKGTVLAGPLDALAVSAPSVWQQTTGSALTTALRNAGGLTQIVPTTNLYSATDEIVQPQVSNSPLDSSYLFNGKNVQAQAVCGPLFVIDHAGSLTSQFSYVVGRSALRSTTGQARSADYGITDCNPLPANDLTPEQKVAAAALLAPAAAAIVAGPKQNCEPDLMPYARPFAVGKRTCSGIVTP

Compound: 4-Hydroxybenzyl Alcohol bis(butyl carbonate)
- hydrolysis in the absence of enzyme ([1]; toluene/pH 7 buffer): no detectable hydrolysis

Compound: COC(=O)OCCc1ccc(OC(=O)OC)c(OC(=O)OC)c1 [Hydroxytyrosol tris(methyl carbonate)]
- hydroxytyrosol by HPLC analysis [2, 4]: 74%
- mono- and di-carbonates by HPLC analysis [2, 4]: 1.5%
- unchanged hydroxytyrosol tris(methyl carbonate) by HPLC analysis [2, 4]: 17%
- mono- and di-carbonates by HPLC analysis ([2]; 48 h, ambient temperature): 5%
- unchanged starting tris(methyl carbonate) or trihexanoate by HPLC analysis ([2]; 48 h, ambient temperature): 3%
- hydroxytyrosol by HPLC analysis [2, 5]: 92%
- hydrolysis to hydroxytyrosol in the absence of enzyme ([1]; after 2 days, toluene/pH 7 buffer): no detectable hydrolysis to hydroxytyrosol

Compound: COC(=O)Oc1ccc(/C=C/c2cc(OC(=O)OC)cc(OC(=O)OC)c2)cc1 [Resveratrol tris(methyl carbonate)]
- resveratrol bis(methyl carbonate) by HPLC analysis [2, 6]: 15.8%
- resveratrol by HPLC analysis [2, 6]: 23.75%
- resveratrol mono(methyl carbonate) by HPLC analysis [2, 6]: 52.9%
- resveratrol tris(methyl carbonate) remaining by HPLC analysis [2, 6]: 7.0%
- resveratrol bis/di(alkyl carbonate) or dipalmitate by HPLC analysis [2, 7]: 0.6%
- resveratrol by HPLC analysis [2, 7]: 63.8%
- resveratrol mono(alkyl carbonate) by HPLC analysis [2, 7]: 35.1%
- unchanged starting tris(alkyl carbonate) or tripalmitate by HPLC analysis [2, 7]: no detectable
- enzymatic hydrolysis [2]: undergo hydrolysis of the carbonate to afford dicarbonates, monocarbonates, and the parent triphenol
- hydrolysis in the absence of enzyme ([1]; toluene/pH 7 buffer): no detectable hydrolysis
- hydrolysis in the absence of the enzyme [1]: no observed hydrolysis

Compound: CCCCOC(=O)Oc1ccc(/C=C/c2cc(OC(=O)OCCCC)cc(OC(=O)OCCCC)c2)cc1 [Resveratrol tris(butyl carbonate)]
- resveratrol bis(butyl carbonate) by HPLC analysis [2, 8]: 41%
- resveratrol tris(butyl carbonate) remaining by HPLC analysis [2, 8]: 59%
- resveratrol bis/di(alkyl carbonate) or dipalmitate by HPLC analysis [2, 7]: 41%
- resveratrol by HPLC analysis [2, 7]: 35%
- resveratrol mono(alkyl carbonate) by HPLC analysis [2, 7]: 5%
- unchanged starting tris(alkyl carbonate) or tripalmitate by HPLC analysis [2, 7]: 19%
- enzymatic hydrolysis [2]: undergo hydrolysis of the carbonate to afford dicarbonates, monocarbonates, and the parent triphenol
- hydrolysis in the absence of the enzyme [1]: no observed hydrolysis

Compound: CCCCCC(=O)OCCc1ccc(OC(=O)CCCCC)c(OC(=O)CCCCC)c1 [Hydroxytyrosol trihexanoate, Hydroxytyrosol Trihexanoate, reference compound]
- 3,4-di(hexanoyl)phenylethanol by HPLC analysis ([2]; 48 h, ambient temperature): 18.7%
- unchanged starting tris(methyl carbonate) or trihexanoate by HPLC analysis ([2]; 48 h, ambient temperature): 72.3%
- hydroxytyrosol by HPLC analysis [2, 5]: 2.5%

Compound: OCc1ccc(O)cc1 [4-hydroxybenzyl alcohol, 4-Hydroxybenzyl alcohol]
- solubility in toluene and water [3]: insolubility in both toluene and water

Compound: CCCCCCCCCCCCCCCC(=O)Oc1ccc(C=Cc2cc(OC(=O)CCCCCCCCCCCCCCC)cc(OC(=O)CCCCCCCCCCCCCCC)c2)cc1 [Resveratrol tripalmitate, Resveratrol Tripalmitate, reference compound]
- extent of enzymatic hydrolysis [2, 7]: minimal hydrolysis
- unchanged starting tris(alkyl carbonate) or tripalmitate by HPLC analysis [2, 7]: 89%
- enzymatic hydrolysis [2]: minimal hydrolysis
